Experiments:
[1] = biological target: T1, Mitogen-activated protein kinase kinase kinase 5 (Homo sapiens) (UniProt Q99683); assay: Selectivity interaction (Kinase panel (DSF assay)) EUB0001489b MAP3K5
T1 sequence (whole entry): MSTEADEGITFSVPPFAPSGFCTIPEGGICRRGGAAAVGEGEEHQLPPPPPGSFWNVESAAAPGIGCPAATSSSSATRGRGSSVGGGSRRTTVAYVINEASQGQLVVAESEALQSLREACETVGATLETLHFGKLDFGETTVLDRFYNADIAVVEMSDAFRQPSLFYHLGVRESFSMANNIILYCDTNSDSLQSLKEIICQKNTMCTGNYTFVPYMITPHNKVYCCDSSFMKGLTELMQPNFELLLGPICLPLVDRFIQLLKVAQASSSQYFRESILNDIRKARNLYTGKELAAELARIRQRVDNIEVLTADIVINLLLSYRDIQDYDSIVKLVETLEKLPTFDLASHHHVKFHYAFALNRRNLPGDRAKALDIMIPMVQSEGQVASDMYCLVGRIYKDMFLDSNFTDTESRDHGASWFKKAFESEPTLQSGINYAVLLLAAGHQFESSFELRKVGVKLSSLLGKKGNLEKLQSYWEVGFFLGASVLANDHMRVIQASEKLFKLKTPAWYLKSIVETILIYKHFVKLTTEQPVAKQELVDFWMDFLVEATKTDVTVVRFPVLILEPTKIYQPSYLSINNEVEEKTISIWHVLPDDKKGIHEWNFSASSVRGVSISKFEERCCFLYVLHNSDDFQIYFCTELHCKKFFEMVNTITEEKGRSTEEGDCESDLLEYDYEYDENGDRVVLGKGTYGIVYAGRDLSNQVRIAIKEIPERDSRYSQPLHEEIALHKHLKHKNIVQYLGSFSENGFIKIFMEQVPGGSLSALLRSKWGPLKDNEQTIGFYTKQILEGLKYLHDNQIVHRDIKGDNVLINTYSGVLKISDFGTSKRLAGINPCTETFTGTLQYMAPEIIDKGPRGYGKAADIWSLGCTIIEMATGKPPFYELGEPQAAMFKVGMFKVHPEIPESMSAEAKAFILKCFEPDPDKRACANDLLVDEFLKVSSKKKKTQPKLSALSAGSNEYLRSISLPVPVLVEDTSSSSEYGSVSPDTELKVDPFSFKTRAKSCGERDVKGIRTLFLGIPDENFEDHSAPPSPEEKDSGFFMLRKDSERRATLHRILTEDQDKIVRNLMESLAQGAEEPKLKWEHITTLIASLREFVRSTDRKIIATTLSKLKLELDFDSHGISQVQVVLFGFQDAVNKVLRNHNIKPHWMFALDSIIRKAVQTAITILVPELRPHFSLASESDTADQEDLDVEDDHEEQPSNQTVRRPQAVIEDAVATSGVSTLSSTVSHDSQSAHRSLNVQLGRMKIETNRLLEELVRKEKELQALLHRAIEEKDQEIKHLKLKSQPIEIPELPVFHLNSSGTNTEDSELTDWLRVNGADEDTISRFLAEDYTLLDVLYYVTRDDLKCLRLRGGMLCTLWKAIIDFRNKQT

[2] = biological target: T2, Serine/threonine-protein kinase PLK1 (Homo sapiens, UniProt P53350); assay: Selectivity interaction (Ambit KINOMEscan and KiNATiv profiling in Jurkat cells) EUB0000090b PLK1; type: cell-based; details: at 1 µM
T2 sequence (P53350 whole entry): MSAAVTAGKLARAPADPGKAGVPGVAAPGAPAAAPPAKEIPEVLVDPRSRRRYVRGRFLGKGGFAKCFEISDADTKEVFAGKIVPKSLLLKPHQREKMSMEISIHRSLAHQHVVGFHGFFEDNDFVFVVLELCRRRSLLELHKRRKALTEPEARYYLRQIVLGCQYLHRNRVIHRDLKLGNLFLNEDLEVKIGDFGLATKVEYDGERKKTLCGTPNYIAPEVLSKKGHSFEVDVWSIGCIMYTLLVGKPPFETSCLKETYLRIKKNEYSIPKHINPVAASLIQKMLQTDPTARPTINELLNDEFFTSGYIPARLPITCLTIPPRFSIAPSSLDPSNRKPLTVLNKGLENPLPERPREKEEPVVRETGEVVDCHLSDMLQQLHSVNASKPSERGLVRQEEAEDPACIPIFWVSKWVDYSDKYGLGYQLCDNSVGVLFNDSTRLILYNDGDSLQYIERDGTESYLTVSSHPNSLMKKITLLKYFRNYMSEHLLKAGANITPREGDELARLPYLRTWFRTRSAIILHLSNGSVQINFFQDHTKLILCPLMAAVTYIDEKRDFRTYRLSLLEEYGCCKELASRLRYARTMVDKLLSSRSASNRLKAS

[3] = biological target: Serine/threonine-protein kinase PAK 1 (Homo sapiens) (UniProt Q13153); assay: Selectivity interaction (KinomeScan (DiscoverX)) EUB0000607a PAK1; details: at 10 µM
[4] = biological target: Ribosomal protein S6 kinase beta-2 (Homo sapiens) (UniProt Q9UBS0); assay: Selectivity interaction (Kinase panel (KiNativ target engagement assay in Jurkat cells)) EUB0001635a RPS6KB2; type: cell-based; details: Selectivity number of off-targets 0.0, Selectivity number of targets 233.0, Source Knowledge https://www.sciencedirect.com/science/article/pii/S2451945619300674?via%3Dihub, at 1 µM
[5] = biological target: Ribosomal protein S6 kinase alpha-3 (Homo sapiens, UniProt P51812); assay: Selectivity interaction (Kinase panel (KiNativ target engagement assay in Jurkat cells)) EUB0001635a RPS6KA3; type: cell-based; details: Selectivity number of off-targets 0.0, Selectivity number of targets 233.0, Source Knowledge https://www.sciencedirect.com/science/article/pii/S2451945619300674?via%3Dihub, at 1 µM
Sequence of Ribosomal protein S6 kinase alpha-3 (P51812 whole entry): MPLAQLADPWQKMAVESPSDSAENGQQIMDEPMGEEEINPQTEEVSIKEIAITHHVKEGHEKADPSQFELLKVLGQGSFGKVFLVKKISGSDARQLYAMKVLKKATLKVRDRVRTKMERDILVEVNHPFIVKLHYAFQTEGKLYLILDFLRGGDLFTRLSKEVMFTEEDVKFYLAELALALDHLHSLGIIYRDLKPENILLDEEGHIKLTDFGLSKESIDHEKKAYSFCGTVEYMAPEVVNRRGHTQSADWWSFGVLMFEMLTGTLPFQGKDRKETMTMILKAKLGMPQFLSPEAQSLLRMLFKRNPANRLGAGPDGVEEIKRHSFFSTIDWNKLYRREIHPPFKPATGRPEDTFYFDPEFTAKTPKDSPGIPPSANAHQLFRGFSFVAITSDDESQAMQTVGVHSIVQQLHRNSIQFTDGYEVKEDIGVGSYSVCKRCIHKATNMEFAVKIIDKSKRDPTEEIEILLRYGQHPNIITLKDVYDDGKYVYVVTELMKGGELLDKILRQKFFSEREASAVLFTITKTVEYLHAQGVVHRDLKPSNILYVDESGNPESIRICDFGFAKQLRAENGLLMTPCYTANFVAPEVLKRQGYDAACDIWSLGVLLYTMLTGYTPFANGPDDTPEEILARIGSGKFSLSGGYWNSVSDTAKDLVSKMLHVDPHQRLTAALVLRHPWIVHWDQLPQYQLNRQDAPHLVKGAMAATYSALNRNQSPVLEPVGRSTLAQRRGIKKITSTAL

[6] = biological target: Serine/threonine-protein kinase PAK 2 (Homo sapiens) (UniProt Q13177); details: at 10 µM
[7] = biological target: Tyrosine-protein kinase Lyn (Homo sapiens, UniProt P07948); assay: Selectivity interaction (Kinase panel (Invitrogen)) EUB0000639a LYN; details: at 200 nM
[8] = biological target: MAP kinase-activated protein kinase 2 (Homo sapiens, UniProt P49137); assay: Selectivity interaction (KinomeScan (DiscoverX)) EUB0000229b MAPKAPK2; details: at 10 µM
[9] = test system: Phosphatidylinositol 4,5-bisphosphate 3-kinase catalytic subunit alpha isoform (Homo sapiens), P42336 [H1047L]; assay: (§1) Selectivity interaction (KinomeScan (DiscoverX)) EUB0000229b PIK3CA; details: at 1 µM
Sequence of Phosphatidylinositol 4,5-bisphosphate 3-kinase catalytic subunit alpha isoform (Homo sapiens), P42336 [H1047L] (P42336 whole entry H1047L, canonical isoform): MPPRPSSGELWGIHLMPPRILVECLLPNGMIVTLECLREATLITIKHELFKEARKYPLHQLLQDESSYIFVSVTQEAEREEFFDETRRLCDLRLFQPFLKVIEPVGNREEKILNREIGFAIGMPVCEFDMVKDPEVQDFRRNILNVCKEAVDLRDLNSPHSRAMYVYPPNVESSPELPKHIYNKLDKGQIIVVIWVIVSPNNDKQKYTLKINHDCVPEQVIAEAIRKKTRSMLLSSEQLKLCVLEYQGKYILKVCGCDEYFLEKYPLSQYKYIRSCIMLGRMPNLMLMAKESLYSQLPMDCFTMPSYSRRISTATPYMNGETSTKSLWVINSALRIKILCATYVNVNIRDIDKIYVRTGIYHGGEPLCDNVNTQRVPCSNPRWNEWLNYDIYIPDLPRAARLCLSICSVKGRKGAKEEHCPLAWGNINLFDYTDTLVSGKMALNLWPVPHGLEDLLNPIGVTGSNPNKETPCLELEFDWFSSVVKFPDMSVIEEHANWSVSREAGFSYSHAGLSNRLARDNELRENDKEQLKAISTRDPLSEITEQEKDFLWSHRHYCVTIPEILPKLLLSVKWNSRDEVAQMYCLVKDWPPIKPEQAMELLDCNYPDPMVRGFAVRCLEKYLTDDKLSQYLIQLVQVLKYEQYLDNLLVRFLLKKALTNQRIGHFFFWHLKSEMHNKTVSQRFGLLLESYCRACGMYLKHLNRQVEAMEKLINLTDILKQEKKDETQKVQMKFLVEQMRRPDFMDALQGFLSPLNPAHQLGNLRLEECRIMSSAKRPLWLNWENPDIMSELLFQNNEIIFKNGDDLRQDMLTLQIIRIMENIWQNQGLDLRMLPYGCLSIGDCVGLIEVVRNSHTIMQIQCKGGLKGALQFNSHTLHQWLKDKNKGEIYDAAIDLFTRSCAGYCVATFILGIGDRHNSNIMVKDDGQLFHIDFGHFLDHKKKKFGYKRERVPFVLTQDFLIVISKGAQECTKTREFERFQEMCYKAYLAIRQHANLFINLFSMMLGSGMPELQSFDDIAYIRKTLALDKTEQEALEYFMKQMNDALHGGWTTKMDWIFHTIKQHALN

[10] = test system: Phosphatidylinositol 4,5-bisphosphate 3-kinase catalytic subunit alpha isoform (Homo sapiens), P42336 [H1047Y]; assay: as §1; details: at 1 µM
[11] = test system: Phosphatidylinositol 4,5-bisphosphate 3-kinase catalytic subunit alpha isoform (Homo sapiens), P42336 [M1043I]; assay: as §1; details: at 1 µM
[12] = test system: Phosphatidylinositol 4,5-bisphosphate 3-kinase catalytic subunit alpha isoform (Homo sapiens), P42336 [E542K]; assay: as §1; details: at 1 µM
[13] = test system: Phosphatidylinositol 4,5-bisphosphate 3-kinase catalytic subunit alpha isoform (Homo sapiens), P42336 [C420R]; assay: as §1; details: at 1 µM
[14] = biological target: Ephrin type-A receptor 7 (Homo sapiens) (UniProt Q15375); assay: Selectivity interaction (ProQinase) EUB0000171b EPHA7
Sequence of Ephrin type-A receptor 7 (Homo sapiens) (Q15375 28-998 limits assumed): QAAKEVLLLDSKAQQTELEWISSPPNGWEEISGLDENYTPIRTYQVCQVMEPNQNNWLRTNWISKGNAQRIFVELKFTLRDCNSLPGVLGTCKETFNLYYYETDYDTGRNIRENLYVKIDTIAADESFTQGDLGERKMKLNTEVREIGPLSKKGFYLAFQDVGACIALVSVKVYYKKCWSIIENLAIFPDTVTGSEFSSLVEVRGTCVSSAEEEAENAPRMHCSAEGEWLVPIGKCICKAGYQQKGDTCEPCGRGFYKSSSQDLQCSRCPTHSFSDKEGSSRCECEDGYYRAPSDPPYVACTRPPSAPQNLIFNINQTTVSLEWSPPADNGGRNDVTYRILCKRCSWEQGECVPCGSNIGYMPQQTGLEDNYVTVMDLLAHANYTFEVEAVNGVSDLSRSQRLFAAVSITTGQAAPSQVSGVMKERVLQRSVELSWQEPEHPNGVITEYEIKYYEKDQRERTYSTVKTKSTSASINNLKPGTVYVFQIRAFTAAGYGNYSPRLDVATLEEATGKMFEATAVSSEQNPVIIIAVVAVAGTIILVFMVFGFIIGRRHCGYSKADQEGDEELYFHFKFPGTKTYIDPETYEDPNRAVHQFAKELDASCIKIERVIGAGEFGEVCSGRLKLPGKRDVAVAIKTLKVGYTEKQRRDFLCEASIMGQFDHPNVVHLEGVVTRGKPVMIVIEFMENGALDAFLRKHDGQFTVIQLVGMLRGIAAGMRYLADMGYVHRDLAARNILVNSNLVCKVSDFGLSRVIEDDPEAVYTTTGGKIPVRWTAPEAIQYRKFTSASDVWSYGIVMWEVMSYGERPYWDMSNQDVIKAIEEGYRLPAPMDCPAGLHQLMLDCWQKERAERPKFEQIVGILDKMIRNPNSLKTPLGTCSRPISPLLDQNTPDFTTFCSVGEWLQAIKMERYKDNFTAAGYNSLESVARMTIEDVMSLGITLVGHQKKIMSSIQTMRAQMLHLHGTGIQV

[15] = biological target: Protein kinase C eta type (Homo sapiens) (UniProt P24723); assay: Selectivity interaction (KinomeScan (DiscoverX)) EUB0001049a PRKCH; details: at 1 µM
[16] = biological target: T1, Mitogen-activated protein kinase kinase kinase 5 (Homo sapiens); assay: Selectivity interaction (KinomeScan (DiscoverX)) EUB0000666a MAP3K5; details: at 10 µM
[17] = biological target: T2, Serine/threonine-protein kinase PLK1; assay: Selectivity interaction (KinomeScan (DiscoverX)) EUB0000092b PLK1; details: at 10 µM
[18] = biological target: Vascular endothelial growth factor receptor 1 (Homo sapiens) (UniProt P17948); assay: Selectivity interaction (KinomeScan (DiscoverX)) EUB0000092b FLT1; details: at 10 µM
Sequence of Vascular endothelial growth factor receptor 1 (Homo sapiens) (P17948 whole entry): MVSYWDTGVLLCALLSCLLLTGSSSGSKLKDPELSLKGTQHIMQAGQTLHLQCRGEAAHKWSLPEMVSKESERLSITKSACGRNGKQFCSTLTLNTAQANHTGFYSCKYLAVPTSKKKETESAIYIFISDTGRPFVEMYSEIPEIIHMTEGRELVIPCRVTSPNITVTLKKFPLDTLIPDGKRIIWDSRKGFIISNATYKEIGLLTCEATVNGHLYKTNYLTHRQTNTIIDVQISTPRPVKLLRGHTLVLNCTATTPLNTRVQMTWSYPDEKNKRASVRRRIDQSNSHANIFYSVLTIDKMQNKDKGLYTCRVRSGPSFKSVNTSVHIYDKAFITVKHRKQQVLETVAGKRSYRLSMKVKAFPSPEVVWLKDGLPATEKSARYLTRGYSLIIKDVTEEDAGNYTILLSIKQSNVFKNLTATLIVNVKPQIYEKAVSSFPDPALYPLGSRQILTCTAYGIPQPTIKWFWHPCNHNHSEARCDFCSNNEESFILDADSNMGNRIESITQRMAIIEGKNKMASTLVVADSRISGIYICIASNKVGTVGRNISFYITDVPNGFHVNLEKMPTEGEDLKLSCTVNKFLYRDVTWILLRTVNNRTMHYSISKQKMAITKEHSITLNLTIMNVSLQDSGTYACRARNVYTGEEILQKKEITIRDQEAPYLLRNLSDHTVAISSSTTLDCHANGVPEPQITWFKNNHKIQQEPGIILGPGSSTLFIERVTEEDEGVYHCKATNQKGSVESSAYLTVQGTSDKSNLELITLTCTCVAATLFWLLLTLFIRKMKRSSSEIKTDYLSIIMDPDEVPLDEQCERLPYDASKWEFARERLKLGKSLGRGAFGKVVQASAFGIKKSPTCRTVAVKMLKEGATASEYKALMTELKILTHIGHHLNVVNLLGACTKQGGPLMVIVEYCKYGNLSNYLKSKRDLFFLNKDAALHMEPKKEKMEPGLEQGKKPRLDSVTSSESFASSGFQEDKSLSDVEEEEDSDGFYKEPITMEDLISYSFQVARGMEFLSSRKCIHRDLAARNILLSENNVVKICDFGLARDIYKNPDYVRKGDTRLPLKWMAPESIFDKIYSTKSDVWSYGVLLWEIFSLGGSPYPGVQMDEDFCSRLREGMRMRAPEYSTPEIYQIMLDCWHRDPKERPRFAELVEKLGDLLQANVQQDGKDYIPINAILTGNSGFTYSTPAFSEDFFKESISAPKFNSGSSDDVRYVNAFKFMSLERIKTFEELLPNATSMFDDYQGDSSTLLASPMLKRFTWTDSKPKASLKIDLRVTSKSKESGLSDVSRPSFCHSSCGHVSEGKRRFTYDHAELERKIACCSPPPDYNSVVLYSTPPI

Structure (SMILES): CN1CCN(C(=O)c2ccc3cc2OCCOCCNc2ccn4ncc-3c4n2)CC1
- dTM [1]: 3.2 K

Structure (SMILES): CN(C)C/C=C/C(=O)Nc1ccc(C(=O)N2CCCC(Nc3ncc(Cl)c(-c4c[nH]c5ccccc45)n3)C2)cc1 (centres undefined)
- % of control [2]: 90%

Structure (SMILES): CNC(=O)Nc1ccc(-c2nc(N3CC4CCC(C3)O4)c3cnn(C4CCC5(CC4)OCCO5)c3n2)cc1
- % of control [3]: 100%

Structure (SMILES): C=CC(=O)Nc1ccc(C(=O)Nc2[nH]nc3c2CN(C(=O)N[C@H](CN(C)C)c2ccccc2)C3(C)C)cc1
- % of engagement [4]: -8.9%
- % of engagement [5]: -18.2%

Structure (SMILES): Cc1cc([C@@H](C)Nc2ccccc2C(=O)O)c2nc(N3CCOCC3)cc(=O)n2c1 [AZD-6482]
- % of control [6]: 100%

Structure (SMILES): CC[C@@H]1[C@H](F)C(=O)N[C@@H]1COc1nccc2cc(C(N)=O)c(OC)cc12 [ZIMLOVISERTIB]
- % of inhibition [7]: 6.8%

Structure (SMILES): COc1cc(N(C)c2ccnc3ccc(C(F)(F)F)cc23)cc(OC)c1OC
- % binding [8]: 93%
- % binding [9]: 63%
- % binding [10]: 90%
- % binding [11]: 87%
- % binding [12]: 90%
- % binding [13]: 87%

Structure (SMILES): C=CC(=O)Nc1cccc(C(=O)Nc2ccc(Nc3cc(-c4[nH]c(SC)nc4C)ccn3)cc2)c1
- % of control ([14]; at 1 µM): 93%
- % of control ([14]; at 5 µM): 89%

Structure (SMILES): COc1cc(Nc2nc(C)cc(-c3cnn4nc(OC)ccc34)n2)cc(C(F)(F)F)c1
- % of control [15]: 100%

Structure (SMILES): O=C(NOC[C@H](O)CO)c1ccc(F)c(F)c1Nc1ccc(I)cc1F
- % of control [16]: 91%

Structure (SMILES): CCC(=O)N1CCN(c2ccc(-n3c(=O)ccc4cnc5ccc(-c6cnc7ccccc7c6)cc5c43)cc2C(F)(F)F)CC1
- % of control [17]: 85%
- % of control [18]: 79%

Source: ChEMBL document CHEMBL5465560, “Selectivity Literature for EUbOPEN Chemogenomic Library” (2024)
